Experimental data taken from patent publication US20130252331A1, “COMPOSITIONS AND METHODS FOR MODULATING METABOLISM” (priority 2010, published 2013).

Tests used:
[1] = Unspecified biological assay; details: assay not specified
3T3L1 cells = test: Adipogenesis of 3T3L1 cells, Oil Red O staining for lipid accumulation; type: cell-based; details: 3T3L1 cells differentiated for eight days in increasing concentrations
From the text: FIG. 1 includes eight micrographs showing that the inhibition of BET protein family members blocks adipogenesis in a dose dependent manner in 3T3L1 cells, which is a cell line that is widely used as a model for adipogenesis. […] Following drug treatment cells were stained with Oil Red O as a measure of lipid accumulation that indicates the degree of adipocyte differentiation.
3T3L1 cells are a well characterized cell type that can be differentiated into fat cells that contain large lipid droplets. […] The cells were differentiated for eight days. On the final day, the cells were stained with Oil Red O, which stains for lipid accumulation in the cells.

C/EBPα = C/EBPα gene expression in 3T3L1 cells during adipocyte differentiation (RT-PCR); type: cell-based; details: 500 nM, first four days of differentiation
Description: (§1) C/EBPα and PPARγ are essential, positive regulators of adipogenesis. […] Results were obtained using RT-PCR.
(§2) Gene expression levels of two key proteins that function in fat cell differentiation, C/EBPα and PPARγ, were measured over the first four days of differentiation.

ob/ob mice [2] = test: Weight gain, food intake and feed efficiency in ob/ob mouse obesity model; type: in vivo; details: 50 mg/kg, 14 days
From the text: FIGS. 3A-3E are graphs showing that inhibition of BET family members blocks weight gain in ob/ob mice, a murine obesity model that lacks leptin.
Ob/ob mice are a well established mouse obesity model that gains weight rapidly on a normal mouse chow diet. […] Without wishing to be bound by theory, it is likely that the disparity is due to differences in the way that ob/ob mice treated with JQ are metabolizing food relative to untreated ob/ob mice.

C57B/6 male mice = test: Insulin tolerance test in C57B/6 mice on high fat diet; type: in vivo, mouse
Description: FIG. 9B is a graph of the area under the curve (AUC) of the data in FIG. 9A.
8 week old C57B/6 male mice were started on a high fat diet containing 60% kcal fat. […] Body weight was measured every week. The mice were then examined for the degree of insulin resistance by insulin tolerance testing. […] Following insulin injection blood glucose was measured at the indicated time points.

ob/ob mice [3] = test: Liver and subcutaneous fat weight and liver H&E histology in ob/ob mice
Description: The sections were stained with hematoxylin and eosin.
Five week old Ob/ob mice were treated with either vehicle (control) or a chemical inhibitor of the BET protein family (JQ) for approximately two weeks. Following treatment the mice were euthanized and organs were harvested and weighed. The weight of the livers and subcutaneous fat were determined.

PPARγ = PPARγ gene expression in 3T3L1 cells during adipocyte differentiation (RT-PCR); type: cell-based; details: 500 nM, first four days of differentiation
Description: as §1, §2

[4] = system: genes that control fat accumulation in liver; test: Liver RNA expression of genes that control fat accumulation in ob/ob mice; type: in vivo, mouse; details: two weeks of treatment
Description: Following treatment, the organs were harvested and liver RNA was isolated to measure gene expression profiles. The expression levels of a panel of genes that function in the control of fat accumulation in liver were measured.

[5] = approximately two weeks of treatment

SMILES: Cc1sc2c(c1C)C(c1ccc(Cl)cc1)=N[C@@H](CC(=O)NN)c1nnc(C)n1-2 [Compound 3]
- activity in at least one biological assay [1]: showed activity

SMILES: Cc1sc2c(c1C)C(c1ccc(Cl)cc1)=N[C@@H](CC(=O)OC(C)(C)C)c1nnc(C)n1-2 [JQ1 (S) enantiomer, (S)-tert-Butyl 2-(4-(4-chlorophenyl)-2,3,9-trimethyl-6H-thieno[3,2-f][1,2,4]triazolo[4,3-a][1,4]diazepin-6-yl)acetate]
- adipogenesis / lipid accumulation (Oil Red O staining) (3T3L1 cells): inhibited lipid accumulation
- adipogenesis / lipid accumulation (Oil Red O staining) (3T3L1 cells; listed as JQ (S) enantiomer): inhibited adipogenesis in a dose dependent manner

SMILES: Cc1sc2c(c1C)C(c1ccc(Cl)cc1)=N[C@@H](CC(=O)OC(C)(C)C)c1nnc(C)n1-2 [JQ]
- induction of C/EBPα expression (C/EBPα): significantly blocked the induction
- food intake (ob/ob mice [2]): mildly inhibited
- weight gain (ob/ob mice [2]): blocked weight gain
- blood glucose after insulin injection (C57B/6 male mice; 7 weeks high fat diet and 50 mg/kg daily, 4 h fast, insulin 0.5 U/kg intraperitoneal): sustained decrease in blood glucose up to 2 hours
- area under the curve for change in blood glucose (C57B/6 male mice; 2 hour time course after insulin, p<0.05): statistically significant decrease
- liver weight (ob/ob mice [3]; [5]): statistically significant reductions
- subcutaneous fat weight (ob/ob mice [3]; [5]): statistically significant reductions
- hepatic steatosis / liver histology (H&E) (ob/ob mice [3]; two week treatment): complete block in hepatic steatosis
- induction of PPARγ expression (PPARγ): significantly blocked the induction

SMILES: Cc1sc2c(c1C)C(c1ccc(Cl)cc1)=N[C@@H](CC(=O)N/N=C/c1ccc(O)cc1)c1nnc(C)n1-2 [Compound 4]
- activity in at least one biological assay [1]: showed activity

SMILES: Cc1sc2c(c1C)C(c1ccc(Cl)cc1)=N[C@@H](CC(=O)OC(C)(C)C)c1nnc(C(F)(F)F)n1-2 [JQ11]
- liver expression of ACC beta [4]: reduced the expression
- liver expression of DGAT [4]: reduced the expression
- liver expression of FAS [4]: not statistically significant
- liver expression of PPARγ2 [4]: reduced the expression
- liver expression of SCD1 [4]: reduced the expression
- liver expression of SREBP [4]: reduced the expression

SMILES: Cc1sc2c(c1C)C(c1ccc(Cl)cc1)=N[C@H](CC(=O)OC(C)(C)C)c1nnc(C)n1-2 [JQ (R) enantiomer]
- adipogenesis / lipid accumulation (Oil Red O staining) (3T3L1 cells): no effect on the generation of lipid
